# Source: publication PMC5298231, “The Malaria Parasite's Lactate Transporter PfFNT Is the Target of Antiplasmodial Compounds Identified in Whole Cell Phenotypic Screens” (PLoS Pathogens, 2017)
# Tested on: erythrocytes infected with 3D7 trophozoites
# Assay type: cell-based, Plasmodium falciparum
# Settings: Av 3hr; 6 μM
smiles,measurement,value
COc1ccc2c(c1)OC(O)(C(F)(F)C(F)(F)F)CC2=O (stereo not shown) [MMV007839],2-Hydroxyglutarate log2 ratio (+MMV007839/-MMV007839),-0.6103
same,2-Ketoglutarate log2 ratio (+MMV007839/-MMV007839),-0.8232
same,3-Phosho-D-glycerate log2 ratio (+MMV007839/-MMV007839),0.07426
same,3-Phospho-serine log2 ratio (+MMV007839/-MMV007839),-0.4035
same,4-Aminobutanoate log2 ratio (+MMV007839/-MMV007839),0.8488
same,5-Phosphoribosyl-1-pyrophosphate log2 ratio (+MMV007839/-MMV007839),0.5077
same,ADP log2 ratio (+MMV007839/-MMV007839),-0.7166
same,AMP log2 ratio (+MMV007839/-MMV007839),-0.5704
same,ATLS log2 ratio (+MMV007839/-MMV007839),-0.2347
same,ATP log2 ratio (+MMV007839/-MMV007839),-0.2177
same,Acetyl-CoA log2 ratio (+MMV007839/-MMV007839),-0.7235
same,Acetyl-L-alanine log2 ratio (+MMV007839/-MMV007839),-0.3599
same,Adenine log2 ratio (+MMV007839/-MMV007839),-0.8446
same,Arginine log2 ratio (+MMV007839/-MMV007839),0.2396
same,Asparagine log2 ratio (+MMV007839/-MMV007839),-0.1753
same,Aspartic Acid log2 ratio (+MMV007839/-MMV007839),-0.3736
same,CDP log2 ratio (+MMV007839/-MMV007839),-0.5752
same,CDP-ethanolamine log2 ratio (+MMV007839/-MMV007839),0.02366
same,CMP log2 ratio (+MMV007839/-MMV007839),-0.08882
same,CTP log2 ratio (+MMV007839/-MMV007839),-0.3119
same,Cholesteryl sulfate log2 ratio (+MMV007839/-MMV007839),-0.1335
same,Citrate log2 ratio (+MMV007839/-MMV007839),-0.1028
same,CoA log2 ratio (+MMV007839/-MMV007839),-0.556
same,Cyclic AMP log2 ratio (+MMV007839/-MMV007839),-0.7854
same,Cytidine log2 ratio (+MMV007839/-MMV007839),-0.2914
same,D-Glucono-1-4-lactone log2 ratio (+MMV007839/-MMV007839),1.992
same,DALT log2 ratio (+MMV007839/-MMV007839),-0.8981
same,DEVG log2 ratio (+MMV007839/-MMV007839),-0.08263
same,DGLA log2 ratio (+MMV007839/-MMV007839),-0.7349
same,DLS log2 ratio (+MMV007839/-MMV007839),-0.6175
same,Deoxycytidine log2 ratio (+MMV007839/-MMV007839),1.594
same,Dihydroorotate log2 ratio (+MMV007839/-MMV007839),-1.064
same,ESFG log2 ratio (+MMV007839/-MMV007839),-0.07747
same,EVGG log2 ratio (+MMV007839/-MMV007839),-0.1694
same,Erythrose 4-phosphate log2 ratio (+MMV007839/-MMV007839),-0.2579
same,FAD log2 ratio (+MMV007839/-MMV007839),-0.4239
same,FMN log2 ratio (+MMV007839/-MMV007839),-0.4985
same,Farnesyl diphosphate log2 ratio (+MMV007839/-MMV007839),-0.04123
same,Folate log2 ratio (+MMV007839/-MMV007839),-0.3602
same,Fructose-1-6-bisphosphate log2 ratio (+MMV007839/-MMV007839),1.146
same,Fructose-6-Phosphate log2 ratio (+MMV007839/-MMV007839),0.05598
same,GDP log2 ratio (+MMV007839/-MMV007839),-1.202
same,GDP-mannose log2 ratio (+MMV007839/-MMV007839),-0.4414
same,GMP log2 ratio (+MMV007839/-MMV007839),-1.665
same,GTP log2 ratio (+MMV007839/-MMV007839),-0.7051
same,Geranylgeranyl pyrophosphate log2 ratio (+MMV007839/-MMV007839),-0.6827
same,Gluconate log2 ratio (+MMV007839/-MMV007839),-0.02575
same,Glucose-6-Phosphate log2 ratio (+MMV007839/-MMV007839),-0.3489
same,Glutamate log2 ratio (+MMV007839/-MMV007839),-0.07518
same,Glutamine log2 ratio (+MMV007839/-MMV007839),0.8027
same,Glutathione disulfide log2 ratio (+MMV007839/-MMV007839),-0.1266
same,Glutathione log2 ratio (+MMV007839/-MMV007839),-0.02749
same,Glyceraldehyde 3-phosphate log2 ratio (+MMV007839/-MMV007839),-0.5897
same,Glycerone phosphate log2 ratio (+MMV007839/-MMV007839),0.4029
same,HLD log2 ratio (+MMV007839/-MMV007839),-0.9223
same,HVDD log2 ratio (+MMV007839/-MMV007839),-1.392
same,Histidine log2 ratio (+MMV007839/-MMV007839),0.6908
same,Homoserine log2 ratio (+MMV007839/-MMV007839),0.249
same,Hydroxy-L-proline log2 ratio (+MMV007839/-MMV007839),0.1081
same,Hypoxanthine log2 ratio (+MMV007839/-MMV007839),0.2683
same,IDP log2 ratio (+MMV007839/-MMV007839),0.1036
same,IMP log2 ratio (+MMV007839/-MMV007839),-0.04113
same,Inosine log2 ratio (+MMV007839/-MMV007839),0.2492
same,Isoleucine log2 ratio (+MMV007839/-MMV007839),0.01345
same,LD log2 ratio (+MMV007839/-MMV007839),0.008648
same,Lactate log2 ratio (+MMV007839/-MMV007839),2.632
same,Leucine log2 ratio (+MMV007839/-MMV007839),-0.1293
same,Lysine log2 ratio (+MMV007839/-MMV007839),0.8307
same,Malate log2 ratio (+MMV007839/-MMV007839),-0.2233
same,Mannitol log2 ratio (+MMV007839/-MMV007839),-0.2308
same,Methionine log2 ratio (+MMV007839/-MMV007839),-0.1652
same,Myristic acid log2 ratio (+MMV007839/-MMV007839),-0.3456
same,N-Acetyl-glutamate log2 ratio (+MMV007839/-MMV007839),-0.8123
same,N-Carbamoyl-L-aspartate log2 ratio (+MMV007839/-MMV007839),-1.502
same,NAD+ log2 ratio (+MMV007839/-MMV007839),0.03216
same,NADH log2 ratio (+MMV007839/-MMV007839),-1.72
same,NADP+ log2 ratio (+MMV007839/-MMV007839),-0.3346
same,Octoluse Bisphosphate log2 ratio (+MMV007839/-MMV007839),1.811
same,Ornithine log2 ratio (+MMV007839/-MMV007839),-0.1015
same,Orotate log2 ratio (+MMV007839/-MMV007839),-1.466
same,Orotidine 5-phosphate log2 ratio (+MMV007839/-MMV007839),-1.489
same,Orotidine log2 ratio (+MMV007839/-MMV007839),-1.057
same,PAEF log2 ratio (+MMV007839/-MMV007839),-1.307
same,PAVH log2 ratio (+MMV007839/-MMV007839),-1.929
same,PD log2 ratio (+MMV007839/-MMV007839),0.2119
same,PDAV log2 ratio (+MMV007839/-MMV007839),0.3685
same,PE log2 ratio (+MMV007839/-MMV007839),0.9141
same,PEE log2 ratio (+MMV007839/-MMV007839),-0.2135
same,PHF log2 ratio (+MMV007839/-MMV007839),0.05129
same,PPVQ log2 ratio (+MMV007839/-MMV007839),-0.3492
same,PVNF log2 ratio (+MMV007839/-MMV007839),-0.8559
same,PVQ log2 ratio (+MMV007839/-MMV007839),0.3164
same,PVQA log2 ratio (+MMV007839/-MMV007839),-1.408
same,Pantothenate log2 ratio (+MMV007839/-MMV007839),-0.2954
same,Phenylalanine log2 ratio (+MMV007839/-MMV007839),-0.1326
same,Phosphoenolpyruvate log2 ratio (+MMV007839/-MMV007839),0.2604
same,Pipecolate log2 ratio (+MMV007839/-MMV007839),0.1041
same,Proline log2 ratio (+MMV007839/-MMV007839),-0.09895
same,Pyridoxine log2 ratio (+MMV007839/-MMV007839),-0.07403
same,Pyruvate log2 ratio (+MMV007839/-MMV007839),1.858
same,Ribose-5-phosphate log2 ratio (+MMV007839/-MMV007839),0.8813
same,S-Adenosyl-L-homocysteine log2 ratio (+MMV007839/-MMV007839),-0.314
same,SDGLA log2 ratio (+MMV007839/-MMV007839),-0.3844
same,SFGD log2 ratio (+MMV007839/-MMV007839),-0.2955
same,Sedoheptoluse bisphosphate log2 ratio (+MMV007839/-MMV007839),-0.1481
same,Sedoheptulose-1/7-phosphate log2 ratio (+MMV007839/-MMV007839),0.2199
